Measurements published in PMC8395125, “Conjugation with Phospholipids as a Modification Increasing Anticancer Activity of Phenolic Acids in Metastatic Melanoma—In Vitro and In Silico Studies” (International Journal of Molecular Sciences, 2021).

Experiments:
451-Lu cells [1] = experiment: Annexin-V/PI apoptosis assay, 451-Lu; assay type: cell-based, human; settings: 100 µM, 72 h
Description: (§1) The studies of cell cycle, apoptosis and intracellular level of ROS were performed using the flow cytometry method. For the apoptosis assay, the cells were harvested and centrifuged (1500 rpm, 3 min). The apoptosis was measured using an Annexin-V apoptosis assay (BioLegend, San Diego, CA, USA). After supernatant removal, the cells were washed with PBS and centrifuged again. The pellets of cells were suspended in 50 μL of cold Annexin-V binding buffer and stained with FITC-labeled Annexin-V for 30 min at 37 °C in the dark. The Annexin-V binding buffer and propidium iodide (PI) solution (100 μg/mL; Sigma-Aldrich, Poznan, Poland) were then added and the samples were stored on ice till they were measured.
(§2) Cytometric analyses were performed immediately using an Aria III flow cytometer (Becton Dickinson, Franklin Lakes, NJ, USA) with FITC configuration (488 nm excitation; emission, LP mirror 503, BP filter 530/30) or with PE configuration (547 nm excitation; emission, 585 nm) and at least 10,000 cells were counted.

Me45 cells [2] = experiment: Annexin-V/PI apoptosis assay, Me45; assay type: cell-based, human; settings: Me45, 100 µM, 72 h
Description: as §1, §2

[3] = test system: Me45 metastatic melanoma cells; experiment: MTT cell viability assay, Me45; assay type: cell-based, human; settings: 72 h; for IC50: Homo sapiens, MTT, 50 to 400 μM, mean ± SD; for toxicity / cell growth inhibition: Me45, 50 to 400 μM
Description: (§3) Three malignant melanoma cell lines (Me45, 1205-Lu and 451-Lu; obtained from the collection of the Centre of Oncology, Gliwice, Poland), neonatal human dermal fibroblast (NHDF; Lonza, Basel, Switzerland) and human colorectal adenocarcinoma cells (Caco-2; ATCC, Manassas, VA, USA) were used in the studies. The human malignant melanoma (Me45) cell line (derived from a lymph node metastasis of skin melanoma) was established in 1997 at the Radiobiology Department of the Centre of Oncology in Gliwice. 1205-Lu and 451-Lu cell lines were derived from human melanoma metastases to lungs of immunodeficient mice. The cells were cultivated in the medium DMEM-F12 (PAA, Warsaw, Poland) supplemented with 10% (for Me45, 1205-Lu and 451-Lu and NHDF) or 20% (Caco-2) of fetal bovine serum (FBS, Eurx, Gdansk, Poland). In addition, medium for Caco-2 cells contained Non-essential Amino Acid Solution (1×) (Sigma-Aldrich, Poznan, Poland). All cell lines were grown in the presence of 1% of antibiotics (10,000 μg/mL streptomycin and 10,000 units/mL penicillin; Sigma-Aldrich, Poznan, Poland), at 37 °C in humidified atmosphere with 5% CO2 under standard conditions. All experimental procedures were carried out in log-phase of cell growth. During some experiments melanoma cells were irradiated with X-rays at the dose of 2 Gy at the 24th hour of the incubation. Ionizing radiation was applied using a laboratory X-Cell 140 irradiator (Kubtec, Bridgeport, CT, USA).
(§4) Cells (Me45, 1205-Lu, 451-Lu and NHDF) were seeded on 96-well plates (20,000 cells/mL) 24 h before the experiment. One day later, fresh media containing tested compounds were added. The appropriate control, containing ethanol:DMSO (v/v 1:1) in fresh medium, was also prepared. The plates were incubated for a given time (72 h for Me45, 1205-Lu, 451-Lu and NHDF; 2 h for Caco-2) at 37 °C in humidified atmosphere with 5% CO2. After incubation, the medium was removed and cells were washed with physiological saline (PBS; PAA, Warsaw, Poland). In the next step, the cells were incubated with MTT (3-[4,5-dimethylthiazol-2-yl]-2,5-diphenyltetrazolium bromide, Sigma-Aldrich, Poznan, Poland) (solution of 0.5 mg/mL in RPMI 1640 without phenol red) for 2 h. Then, the MTT solution was removed and the formazan crystals were dissolved in the mixture isopropanol:HCl (v/v 1:0.04; both purchased from Sigma-Aldrich, Poznan, Poland). The absorbance of the obtained product was read at 570 nm using a microplate reader (Epoch; BioTek, Winooski, VT, USA). Survival rate was expressed as the percentage of cell survival and calculated from the ratio (A570 of treated cells/A570 of control cells) × 100%. The experiments were repeated three times.

[4] = test system: 1205-Lu metastatic melanoma cells; experiment: MTT cell viability assay, 1205-Lu; assay type: cell-based, human; settings: 72 h, 50 to 400 μM; for IC50: Homo sapiens, 1205Lu, MTT, mean ± SD; for toxicity / cell growth inhibition: 1205-Lu
Description: as §3, §4

[5] = test system: 451-Lu metastatic melanoma cells; experiment: MTT cell viability assay, 451-Lu; assay type: cell-based, human; settings: 72 h, 50 to 400 μM; for IC50: Homo sapiens, 451Lu, MTT, mean ± SD; for toxicity / cell growth inhibition: 451-Lu
Description: as §3, §4

[6] = test system: normal skin fibroblasts NHDF; experiment: MTT cell viability assay, NHDF; assay type: cell-based, human; settings: 72 h, 50 to 400 μM; for IC50: Homo sapiens, MTT, mean ± SD
Description: as §3, §4

1205-Lu cells [7] = experiment: Annexin-V/PI apoptosis assay, 1205-Lu; assay type: cell-based, human; settings: 100 µM; for induction of apoptosis / fraction of necrotic cells: 72 h; for fraction of cells in the early stage of apoptosis: 48 h of incubation, without irradiation
Description: as §1, §2

1205-Lu cells [8] = experiment: Pro-apoptotic activity in combination with ionizing radiation (2 Gy), 1205-Lu; assay type: cell-based, human; settings: 100 µM, 48 h, X-rays 2 Gy at the 24th hour
Description: In the next step, pilot experiments on the pro-apoptotic activity of phenolic acid-PC conjugates in combination with ionizing radiation (IR) were performed. […] The time of incubation with a given compound was reduced to 48 h. X-rays at the dose of 2 Gy were applied at the 24th hour of incubation.
Three malignant melanoma cell lines (Me45, 1205-Lu and 451-Lu; obtained from the collection of the Centre of Oncology, Gliwice, Poland), neonatal human dermal fibroblast (NHDF; Lonza, Basel, Switzerland) and human colorectal adenocarcinoma cells (Caco-2; ATCC, Manassas, VA, USA) were used in the studies. […]
The studies of cell cycle, apoptosis and intracellular level of ROS were performed using the flow cytometry method. […] The apoptosis was measured using an Annexin-V apoptosis assay (BioLegend, San Diego, CA, USA). […] The Annexin-V binding buffer and propidium iodide (PI) solution (100 μg/mL; Sigma-Aldrich, Poznan, Poland) were then added and the samples were stored on ice till they were measured.
as §2

451-Lu cells [9] = experiment: Cell cycle analysis (PI, flow cytometry), 451-Lu; assay type: cell-based, human; settings: 100 µM, 72 h, vs untreated control
Description: (§5) For cell cycle analysis, harvested cells were centrifuged (1500 rpm, 3 min). After supernatant removal, cells were fixed with a hypotonic buffer, containing PI at 100 µg/mL in PBS, 5 mg/l of citric acid, 1:9 Triton-X solution, 100 µg/mL of RNase in PBS (Sigma-Aldrich, Poznan, Poland). Probes were incubated for 20 min at room temperature in the dark, then stored on ice till they were measured.
as §2

451-Lu melanoma cells = experiment: Intracellular ROS formation (DCFH-DA, flow cytometry), 451-Lu; assay type: cell-based, human; settings: 72 h, DCF fluorescence
Description: (§6) The experiments on ROS content were performed after 72 h of incubation with the given compounds. The cells were harvested and centrifuged (1500 rpm, 3 min), washed with PBS and centrifuged again. The pellet was resuspended in culture medium and a cell-permeable non-fluorescent probe 2′,7′-dichlorofluorescin diacetate (DCFH-DA, Sigma-Aldrich, Poznan, Poland) at a final concentration of 30 µM was added. The samples were incubated in darkness for 30 min at 37 °C, then stored on ice till they were measured. DCFH-DA is hydrolyzed by cellular esterases into its polar form DCFH. Due to the intracellular ROS and other peroxides, DCFH undergoes oxidation and turns into highly fluorescent compond 2′,7′-dichlorofluorescein (DCF).
as §2

Me45 melanoma cells = experiment: Intracellular ROS formation (DCFH-DA, flow cytometry), Me45; assay type: cell-based, human; settings: Me45, 72 h, DCF fluorescence
Description: as §6, §2

1205-Lu melanoma cells = experiment: Intracellular ROS formation (DCFH-DA, flow cytometry), 1205-Lu; assay type: cell-based, human; settings: 72 h, DCF fluorescence
Description: as §6, §2

Me45 cells [10] = experiment: Cell cycle analysis (PI, flow cytometry), Me45; assay type: cell-based, human; settings: Me45, 100 µM, 72 h, vs untreated control
Description: as §5, §2

colon cancer cells = test system: colon cancer cells; parameters: method as in PMID 30104549; settings: cited from earlier work

| SMILES | IC50 [3] [µM] | IC50 [4] [µM] | IC50 [5] [µM] | induction of apoptosis (451-Lu cells [1]) | induction of apoptosis (Me45 cells [2]) | IC50 [6] [µM] | induction of apoptosis (1205-Lu cells [7]) | cell cycle phase distribution (451-Lu cells [9]) | cell cycle phase distribution (Me45 cells [10]) | other results |
| --- | --- | --- | --- | --- | --- | --- | --- | --- | --- | --- |
| COc1ccc(C(=O)O)cc1 [1a, 4-methoxybenzoic acid, reference compound] |  |  |  | no ability to induce apoptosis | no ability to induce apoptosis |  | no ability to induce apoptosis |  |  | toxicity / cell growth inhibition [3]: non-toxic; toxicity / cell growth inhibition [4]: non-toxic; toxicity / cell growth inhibition [5]: non-toxic; toxicity / cell growth inhibition [6]: non-toxic |
| COc1ccc(C(=O)O)cc1OC [1b, 3,4-dimethoxybenzoic acid, reference compound] |  |  |  | no ability to induce apoptosis | no ability to induce apoptosis |  | no ability to induce apoptosis |  |  | toxicity / cell growth inhibition [3]: non-toxic; toxicity / cell growth inhibition [4]: non-toxic; toxicity / cell growth inhibition [5]: non-toxic; toxicity / cell growth inhibition [6]: non-toxic |
| COc1ccc(C(=O)OC[C@H](COP(=O)([O-])OCC[N+](C)(C)C)OC(=O)c2ccc(OC)cc2)cc1 [3a, 1,2-dianisoyl-sn-glycero-3-phosphocholine] | 111 ± 4.5 | 82 ± 10.5 | 47.5 ± 2.7 | significant potency to induce apoptosis | significant potency to induce apoptosis | 238 ± 17.8 | significant potency to induce apoptosis | increased the fraction of melanoma cells in the sub-G1 phase |  | fraction of necrotic cells (451-Lu cells [1]): significant increase in the fraction of necrotic cells; fraction of cells in the early stage of apoptosis (1205-Lu cells [7]): ~ 17%; fraction of necrotic cells (1205-Lu cells [7]): significant increase in the fraction of necrotic cells; reactive oxygen species formation (antioxidant activity, words) (451-Lu melanoma cells): strongest antioxidant; reactive oxygen species formation (antioxidant activity, words) (Me45 melanoma cells): strongest antioxidant; reactive oxygen species formation (antioxidant activity, words) (1205-Lu melanoma cells): strongest antioxidant |
| COc1ccc(C(=O)OC[C@H](COP(=O)([O-])OCC[N+](C)(C)C)OC(=O)c2ccc(OC)c(OC)c2)cc1OC [3b, 1,2-diveratroyl-sn-glycero-3-phosphocholine] | 84.4 ± 14 | 153 ± 9.5 | 48.3 ± 5.5 | significant potency to induce apoptosis | significant potency to induce apoptosis | 168 ± 11.3 | significant potency to induce apoptosis | increased the fraction of melanoma cells in the sub-G1 phase | increased the fraction of Me45 cells in the sub-G1 as well as G2/M phases | fraction of necrotic cells (451-Lu cells [1]): significant increase in the fraction of necrotic cells; fraction of cells in the early stage of apoptosis (1205-Lu cells [7]): ~ 22%; fraction of necrotic cells (1205-Lu cells [7]): significant increase in the fraction of necrotic cells; reactive oxygen species formation (antioxidant activity, words) (451-Lu melanoma cells): highest ability to reduce ROS formation; reactive oxygen species formation (antioxidant activity, words) (Me45 melanoma cells): highest ability to reduce ROS formation; reactive oxygen species formation (antioxidant activity, words) (1205-Lu melanoma cells): highest ability to reduce ROS formation; overcoming of doxorubicin-resistance (colon cancer cells): partially overcome doxorubicin-resistance |
| CCCCCCCCCCCCCCCC(=O)O[C@H](COC(=O)c1ccc(OC)c(OC)c1)COP(=O)([O-])OCC[N+](C)(C)C [8b, 1-veratroyl-2-palmitoyl-sn-glycero-3-phosphocholine] | 126 ± 3.7 | 73.2 ± 9.3 | 82.2 ± 14.3 |  |  | 150 ± 17.9 |  |  | Increased fraction of Me45 cells in G2/M phase | pro-apoptotic effect in combination with ionizing radiation (1205-Lu cells [8]): most effective combinations |

Second part, led by results:

| IC50 [3] [µM] | IC50 [4] [µM] | IC50 [5] [µM] | SMILES | induction of apoptosis (451-Lu cells [1]) | induction of apoptosis (Me45 cells [2]) | IC50 [6] [µM] | induction of apoptosis (1205-Lu cells [7]) | cell cycle phase distribution (451-Lu cells [9]) | cell cycle phase distribution (Me45 cells [10]) | other results |
| --- | --- | --- | --- | --- | --- | --- | --- | --- | --- | --- |
| 122 ± 10 | 71.3 ± 7.7 | 97.7 ± 8 | CCCCCCCCCCCCCCCC(=O)OC[C@H](COP(=O)([O-])OCC[N+](C)(C)C)OC(=O)c1ccc(OC)cc1 [5a, 1-palmitoyl-2-anisoyl-sn-glycero-3-phosphocholine] | slightly increased | slightly increased | 249 ± 20.9 |  |  |  |  |
| 131 ± 9.9 | 62.2 ± 7.1 | 54.1 ± 6.7 | CCCCCCCCCCCCCCCC(=O)O[C@H](COC(=O)c1ccc(OC)cc1)COP(=O)([O-])OCC[N+](C)(C)C [8a, 1-anisoyl-2-palmitoyl-sn-glycero-3-phosphocholine] |  |  | 198 ± 20.8 |  |  |  | pro-apoptotic effect in combination with ionizing radiation (1205-Lu cells [8]): most effective combinations |
| 109 ± 7.6 | 102 ± 4.1 | 137 ± 7.7 | CCCCCCCCCCCCCCCC(=O)OC[C@H](COP(=O)([O-])OCC[N+](C)(C)C)OC(=O)c1ccc(OC)c(OC)c1 [5b, 1-palmitoyl-2-veratroyl-sn-glycero-3-phosphocholine] |  | significantly higher fractions of Me45 cells in the early and late stages of apoptosis | 185 ± 13.7 |  | increased the fraction of melanoma cells in the sub-G1 phase | Increased fraction of Me45 cells in G2/M phase |  |
